We go through two molecules from patent publication US20260015341A1, “PI3K INHIBITOR, PREPARATION METHOD THEREFOR, AND USE THEREOF” (HINOVA PHARMACEUTICALS INC., priority 2022, published 2026).

A short description of one data set: Pharmacokinetics in rats. The data set is classed as in vivo, SD rats. Particulars: rat; for AUC / half-life / clearance / Vd: male, SD, plasma; for Vd: read-out: VSS. As to the method:
Experimental Example 4: The Pharmacokinetics of the Compound According to the Present Invention in Rats
(§1) 9 healthy adult male SD rats (three for each administration route of each compound) were fasted overnight (>12 h) before gavage, with free access to water; 4 hours after administration, rats could take food, and were administered via tail vein injection and gastric lavage, respectively. At different time points, intravenous blood sample was collected and anti-coagulated, wherein the anticoagulant was EDTA-K2 (the sample was placed in an ice bath after blood collection). The plasma was separated by centrifugation at 4° C. and 6000 g for 5 min, and stored at −70° C. for testing. The plasma concentration of compounds was determined by LC-MS/MS method.
(§2) The plasma concentration of compound at all time points was used to calculate the main pharmacokinetic parameters with Winnolin 8.3 non-compartmental model.
(§3) The area under the concentration-time curve AUCall value: calculated using the trapezoidal method; AUCinf=AUCall+Ct/ke, Ct is the plasma concentration at the last measurable time point, and ke is the elimination rate constant;
The elimination half life t1/2=0.693/ke;
(§4) The clearance rate CL=D/AUCinf (D is the administration dosage);
The volume of distribution at steady state Vss=CL×MRT, The mean retention time MRT=AUMC/AUC;

A short description of data set [1]: Pharmacokinetics in beagle dogs. The data set is classed as in vivo. Particulars: beagle dog; for AUC / half-life / clearance / Vd: male, plasma; for Vd: read-out: VSS. As to the method:
Experimental Example 5: The Pharmacokinetics of the Compound According to the Present Invention in Beagle Dogs
as §1, with “beagle dogs” for “SD rats”, “forelimb venous” for “intravenous”, “3200” for “4° C. and 6000”, “10” for “5”
as §2, §3, §4
The volume of distribution at steady state Vss=CL×MRT. The mean retention time MRT=AUMC/AUC;

The subject of the next data set is MDA-MB-453 cells. Nature of the data set: Pharmacodynamic evaluation in NOD SCID mouse model with subcutaneous xenograft tumor of MDA-MB-453 cells. The data set is classed as in vivo. Particulars: oral, twice a day. Here is the method: Experimental Example 6: Pharmacodynamic Evaluation of the Compound According to the Present Invention in NOD SCID Mouse Model with Subcutaneous Xenograft Tumor of MDA-MB-453 Cells
MDA-MB-453 cell lines were cultured in Leibovitz's L-15 medium+10% fetal bovine serum+1% […] at 37° C. under 5% CO2, and passaged once a week. When the cell saturation was between 80% and 90%, and the required quantity was reached, the cells were collected, counted, and inoculated.
When the number of cells in the logarithmic growth phase reached the required amount for the experiment, the cells were collected, and centrifuged at 1000 rpm for 5 minutes to remove the supernatant. The cells were resuspended in the medium, and counted using a cell counter. Based on the counting results, the original solution was diluted to obtain cell suspension at a concentration of 1*10^8 cells/mL. The cell viability was 94.55%, P14 generation. The diluted cell suspension and matrix gel were diluted in a 1:1 ratio, and after mixing, placed on ice. a 1 mL sterile syringe was used to transfer the suspension. 0.2 mL of cell suspension was subcutaneously inoculated into the right axilla of each mouse. Each mouse was inoculated with 1*10^7 MDA-MB-453 cells.
After inoculation, the tumor growth state was observed daily. When the average volume reached about 157.14 mm^3, mice were randomly divided into groups based on tumor size and body weight for administration. The same dose of solvent was given to the control group. The day on which tumor cells were inoculated was defined as Day 0.
The health and mortality status of animals was daily monitored, including tumor growth, activity ability, diet, weight, eyes, hair, and other abnormal behaviors. Body weight was measured daily, while tumor volume was measured twice a week. The tumor volume was measured using a vernier caliper, and the formula is TV=0.5 a×b^2, wherein a is the long diameter of the tumor, and b is the short diameter of the tumor. After reaching the experimental endpoint, plasma samples were collected from each group at pre-determined time points for determining the plasma concentration. After euthanizing mice, tumors were collected, photographed, weighed, and frozen.
Relative tumor proliferation rate, T/C (%), refers to the percentage ratio of tumor volume or weight between the treatment group and the control group at a certain time point. The calculation formula is: T/C %=TRTV/CRTV×100%
wherein, TRTV: the average relative tumor volume (RTV) of the treatment group; CRTV: the average relative tumor volume of the control group; (RTV): RTV=Vt/V0, V0 is the tumor volume of the animal at the time of grouping, and Vt is the tumor volume of the animal after treatment. […]

A further data set has as its system MCF-10A cells. Nature of the data set: Inhibitory effects on the proliferation of MCF-10A cells (CCK8). The data set is classed as cell-based. Particulars: Homo sapiens, 144 h, 6 days. Summed up:
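MCF-10A cells seeded at 500 cells/well, cultured 24 h, then exposed to 9-point 3-fold dilutions from 10 μM final for 6 days at 37° C., 5% CO2. Viability by CCK8, 2–3 h, OD450 read; IC50 reported.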

Where [2] appears, read: iv (tail vein injection), 1 mg/kg.
[3] abbreviates: po, ig (intragastric), 10 mg/kg.

One may read the AUC as the area under the concentration-time curve, a measure of exposure. The low end stands for less exposure, the high end for more exposure. As a reminder, the half-life is the time needed for the level to fall by half in the phase considered. Low values mean rapid decline, high ones slow decline. In general, clearance refers to the volume of plasma or blood freed of the substance per unit of time. Higher therefore signals efficient removal. One may read the IC50 as the midpoint of a concentration-inhibition curve. Low values mean inhibition by little substance, high ones a need for much substance.

On to `Cc1cc([C@@H](C)Nc2ccc(Cl)nc2C(=O)O)c2nc(-c3ccc(F)cn3)n(C)c(=O)c2c1` [Compound 66, (R)-6-chloro-3-((1-(2-(5-fluoropyridin-2-yl)-3,6-dimethyl-4-oxo-3,4-dihydroquinazolin-8-yl)ethyl)amino)pyridinecarboxylic Acid], for which the AUC stood at 4.04 µg·h/mL in “Pharmacokinetics in rats” (po, ig (intragastric), 3 mg/kg); 1.39 µg·h/mL in the data set “Pharmacokinetics in rats” (setting [2]); 4.91 µg·h/mL in data set [1] (po, ig (intragastric), 3 mg/kg); 11 µg·h/mL in data set [1] (setting [3]); 2.21 µg·h/mL in data set [1] (iv, 1 mg/kg). Further, the half-life in the data set “Pharmacokinetics in rats” (po, ig (intragastric), 3 mg/kg) was 18 h; in “Pharmacokinetics in rats” (setting [2]), 3.44 h; in data set [1] (po, ig (intragastric), 3 mg/kg) it was 3.81 h; in data set [1] (setting [3]), 7.7 h; in data set [1] (iv, 1 mg/kg), 3.34 h. For the same molecule, the clearance amounted to 0.654 L/h/kg in the data set “Pharmacokinetics in rats” (setting [2]) and 0.466 L/h/kg in data set [1] (iv, 1 mg/kg). Moreover, the Vd was determined as 2.2 L/kg in the data set “Pharmacokinetics in rats” (setting [2]) and 0.879 L/kg in data set [1] (iv, 1 mg/kg). Moreover, the F is recorded as 89.0% in the data set “Pharmacokinetics in rats” (ig (intragastric), 3 mg/kg); 74.5% in data set [1] (ig (intragastric), 3 mg/kg); 49.1% in data set [1] (ig (intragastric), 10 mg/kg). Also, the figures for the “TGI % after administrating for 21 days” value with MDA-MB-453 cells (25 mg/kg) and with MDA-MB-453 cells (75 mg/kg) were 71% and 87%, respectively. In addition, in the data set on MCF-10A cells, the IC50 is more than 5 µM.

Consider `C[C@@H](Nc1ccc(Cl)nc1C(=O)O)c1cc(F)cc2c(=O)n(C)c(-c3ccc(F)cn3)nc12` [Compound 74], for which the AUC in the data set “Pharmacokinetics in rats” (po, ig (intragastric), 3 mg/kg) stood at 1.33 µg·h/mL; in “Pharmacokinetics in rats” (setting [2]), 1.01 µg·h/mL; in data set [1] (po, ig (intragastric), 3 mg/kg) it was 3.71 µg·h/mL; in data set [1] (setting [3]), 13.7 µg·h/mL; in data set [1] (iv, 1 mg/kg), 2.39 µg·h/mL. In addition, the half-life in “Pharmacokinetics in rats” (po, ig (intragastric), 3 mg/kg) was 2.4 h; in “Pharmacokinetics in rats” (setting [2]) it was 2.73 h; in data set [1] (po, ig (intragastric), 3 mg/kg), 4.11 h; in data set [1] (setting [3]), 12.7 h; in data set [1] (iv, 1 mg/kg) it was 5.56 h. The clearance in the data set “Pharmacokinetics in rats” (setting [2]) was 0.996 L/h/kg; in data set [1] (iv, 1 mg/kg) it was 0.414 L/h/kg. Besides, the Vd in “Pharmacokinetics in rats” (setting [2]) was 1.33 L/kg; in data set [1] (iv, 1 mg/kg), 0.663 L/kg. Also, the F in the data set “Pharmacokinetics in rats” (ig (intragastric), 3 mg/kg) came out at 44.8%; in data set [1] (ig (intragastric), 3 mg/kg), 52.4%; in data set [1] (ig (intragastric), 10 mg/kg), 62.8%. The “TGI % after administrating for 21 days” value with MDA-MB-453 cells (25 mg/kg) amounted to 74%; in the data set on MDA-MB-453 cells (75 mg/kg), 85%. In the data set with MCF-10A cells, this molecule yielded an IC50 of more than 5 µM.
